# Test results as given in patent publication US20230390312A1, “NOVEL THERAPEUTIC COMBINATIONS COMPRISING DERIVATIVES OF OXAZAPHOSPHORINES FOR THE TREATMENT OF CANCER” (INSTITUT GUSTAVE ROUSSY, priority 2019, published 2023).
# Entries after “also recorded” stand apart in the source; their conditions may differ. Where two headings read alike, the source gives them in different places.
# What was measured:
# [1] = system: MCA205 fibrosarcoma tumor; assay type: in vivo, mouse; conditions: single i.p.
# Experimental: 7-8 weeks-old female C57BL/6 mice (mean body weight, 20 g) were purchased from Harlan Laboratories (Gannat, France). Animals were used in pathogen-free conditions. MCA205 fibrosarcoma tumor cell line (syngenic from C57Bl/6 mice) was kindly provided by Dr Yamazaki Takahiro (INSERM U1015, Gustave Roussy, Villejuif, France). They were harvested at 37° C. under 5% CO2 in Gibco™ RPMI 1640 medium (Paisley, UK) supplemented with 10% Fetal Bovine Serum (Paisley, UK) and 2 mM L-glutamine (Invitrogen, USA). All animal experiments were carried out in compliance with French and European laws and regulations and by the CEEA26 Ethic committee and the ministry of national education, higher education and research and carried out under conditions established by the European Community (Directive 2010/63/2015-038).
# (§1) 8·10^5 tumor cells were inoculated subcutaneously (s.c.) in the right flank of C57Bl/6 mice on DO.
# Regarding study for combination between chemotherapy (G-IFO) and anti-PD1 mAbs, mice received G-IFO or vehicle on D9 then 200 μg/mouse i.p. injections of anti-PD1 mAbs (clone RMP1-14) or its isotype control Rat IgG2a (clone 2A3) on D12, D15 and D19. Tumor volume was followed-up three times a week by measuring the length and width using a caliper. In order to normalize tumor measurements for each day VTDx to VTDi (VTDx/VTDi) ratio was calculated; VTDi corresponds to the tumor volume the day of treatment initiation and VTDx corresponds to the tumor volume on each measurement day for each mouse.
# [2] = system: IFNγ, IL-17A and IL-6 secretion; assay: TCR-driven cytokine release by splenocytes of treated naive mice; assay type: in vivo, mouse; conditions: CPA 100 mg/kg, IFO 100, 150 and 200 mg/kg, CD3ε+CD28 stimulation
# Experimental: (§2) Female C57BL/6 mice of 7 to 8 weeks were randomly assigned to the different treatment groups. […] Both drugs were dissolved in a solution of NaCl 0.9%. […] Seven days post treatment, the mice were sacrificed, spleens and tumors were collected. After lysis of red blood cells with ammonium chloride splenic viable cells were quantified with Trypan Blue with Vi-CELL XR (Beckman Coulter).
# (§3) From spleen cell suspension, a total of 2·10^5 cells per well were incubated in 96 well Nunc MaxiSorp® plates (eBioscience) precoated with anti-CD3ε mAbs (clone 145-2C11, 10 μg/mL); eBioscience) and/or anti-CD28 mAbs (clone 37.57, 2 μg/mL; BD Pharmingen). The supernatants were assayed after 48 hours of incubation at 37° C. under 5% CO2 using Cytokine concentrations were quantified in the supernatant using a Bio-Plex™ Mouse Cytokine Standard 23-Plex, Group I Assay (bio rad, M60009RDPD). The panel was comprised of the following cytokines and chemokines: eotaxin, Granulocyte-Colony Stimulating Factor (G-CSF), Granulocyte-Macrophage-Colony Stimulating Factor (GM-CSF), interferon gamma (IFNγ), interleukin (IL)-1α (IL-1α), IL-1β, IL-2, IL-3, IL-4, IL-5, IL-6, IL-9, IL-10, IL-12p40, IL-12p70, IL-13, IL-17A, Keratinocyte Chemoattractant (KC), Macrophage Chemotactic Protein-1 (MCP-1), Macrophage Inflammatory Protein (MIP)-1alpha (MIP-1α), MIP-1β, Regulated on Activation Normal T cell Expressed and Secreted (RANTES) and Tumor Necrosis Factor-alpha (TNF-α). Results were analyzed using Bio-Plex Manager Software V 6.1 (Bio-Rad Laboratories, Hercules, CA, USA). […] These three cytokines were then quantified using mouse IL-17A ELISA Ready-SET-Go® (eBiosciences), Mouse IFNy ELISA Set (BD Biosciences) and Mouse IL-6 ELISA Set (BD Biosciences).
# B cells = assay type: in vivo, mouse; conditions: for B cell depletion in the spleen: FIG. 4, IFO 150 mg/kg, CPA 100 mg/kg, G-IFO eq. 100 or 150 mg/kg, single i.p., 7 days
# Experimental: as §2
# (§4) Briefly, tumor dissociation was done with GentleMACS™ Dissociator after adding ADNase (260913, Millipore) and […] (5401127001, Sigma) to weighed and cut tumors. Tumor cells were incubated for 40 min at 37° C. under stirring and then quantified with Trypan Blue with Vi-CELL XR (Beckman Coulter). Before staining, Fcγ-receptors were blocked for 15 min at 4° C. using anti-CD16/32 functional grade purified antibodies (eBioscience, Paris, France). Cells were incubated for 30 min at 4° C. with antibodies for cell surface staining. For FoxP3 staining, cells were fixed and permeabilized after cell surface staining according to the FoxP3 kit protocol (eBioscience, Paris, France). Samples were acquired on 10-colors Gallios cytometer (Beckman Coulter, Villepinte, France). Analyses were performed using Kaluza software 1.3 (Beckman Coulter). Two different panels were used to identify immune cells. First leucocytes were identified by the use of FITC-conjugated anti-mouse CD45. T and B lymphocytes were identified using APC-Cy7-conjugated anti-mouse CD3 and BV421-conjugated anti-mouse CD19 respectively. CD4^+ and CD8^+ T cells were separated using PE-Cy7-conjugated anti-mouse CD4 and APC-R700-conjugated anti-mouse CD8a staining among CD3 positive cells, respectively. Treg cells were stained using APC-conjugated anti-mouse FoxP3 staining among CD3^+CD4^+ T cells (Table 1).
# T cells = assay type: in vivo, mouse; conditions: for T cell counts: tumor-bearing mice
# Experimental: (§5) Female C57BL/6 mice of 7 to 8 weeks were randomly assigned to the different treatment groups. […] Both drugs were dissolved in a solution of NaCl 0.9%. […] The administrations were performed by a single i.p. injection with a volume of 20 mL/kg or 10 mL/kg when adding G-IFO groups. Seven days post treatment, the mice were sacrificed, spleens and tumors were collected. After lysis of red blood cells with ammonium chloride splenic viable cells were quantified with Trypan Blue with Vi-CELL XR (Beckman Coulter).
# as §4
# [3] = mice, intravenous route; cited from earlier work
# [4] = system: large panel of tumor cells; conditions: in vitro; cited from earlier work
# [5] = system: IFNγ, IL-17A and IL-6 secretion; assay: TCR-driven cytokine release by splenocytes of treated MCA205 tumor-bearing mice; assay type: in vivo, mouse
# Experimental: as §5, §3
# rhabdomyosarcoma = conditions: murine model of rhabdomyosarcoma; cited from earlier work
# [6] = system: advanced refractory soft tissue; conditions: high dose, cumulative dose of 12 000 mg/m2; cited from earlier work
# [7] = system: MCA205 fibrosarcoma tumor; assay: Antitumor activity of IFO in MCA205-bearing mice depleted in CD4+ and/or CD8+ T cells; assay type: in vivo, mouse
# From the text: as §1
# osteosarcoma = conditions: high dose, cumulative dose of 14 000 mg/m^2, cited from earlier work
# several cancerous cells = conditions: cited from earlier work
# [8] = IFO 100 and 150 mg/kg, CD3ε and CD28 co-stimulation
structure (smiles),measurement,setting,value
"O=P1(N(CCCl)CCCl)NCCCO1 (stereo not drawn) [CPA, Cyclophosphamide]",tumor growth,[1]; CPA 100 mg/kg,Significant reduction of the tumor growth
same,TCR-driven IFNγ,[2],significantly increased
same,TCR-driven IL-6,[2],significantly increased
same,TCR-driven IL-17A,[2],significantly increased
same,B cell depletion in the spleen,B cells,Dose-dependent B cell depletion
"CC(C)=CCC/C(C)=C/COC1CCOP(=O)(NCCCl)N1CCCl (stereo not drawn) [G-IFO, geranyloxy-Ifosfamide]",T cell depletion,T cells; G-IFO eq. 150 mg/kg,induced T cell depletion
same,conversion into 4-hydroxy-ifosfamide metabolite,[3],rapidly converted
same,cytotoxicity,[4],cytotoxic
same,tumor growth,[1]; G-IFO eq. 100 mg/kg,able to delay tumor growth; also recorded: showed an antitumoral activity; also recorded: delayed tumor-growth
same,tumor growth delay compared to CPA 100 mg/kg,"[1]; G-IFO eq. 100 mg/kg, FIG. 2D",lower tumor growth delay
same,IFNγ secretion (Th1 polarization),[5]; G-IFO eq. 100 mg/kg,favored IFNγ secretion; also recorded: increase
same,IL-6 secretion,[5]; G-IFO eq. 100 mg/kg,increase
same,IFNγ secretion,[5]; G-IFO eq. 150 mg/kg,poor secretion of IFNγ
same,IL-6 secretion,[5]; G-IFO eq. 150 mg/kg,high levels of IL-6
same,IL-17 secretion,[5]; escalating doses of G-IFO,No significant IL-17 secretion
same,tumor growth,rhabdomyosarcoma,prevent tumor growth
same,B cell depletion in the spleen,B cells,Dose-dependent B cell depletion
same,B cells population,"B cells; G-IFO low dose eq. 100 mg/kg, i.p.",very affected
"O=P1(NCCCl)OCCCN1CCCl (stereo not drawn) [IFO, ifosfamide]",efficacy,[6],effective
same,toxicities,[6],major toxicities
same,T cell counts,T cells; IFO 100 and 150 mg/kg,no T cell counts decrease
same,T cell counts,T cells; IFO higher doses (200 and 300 mg/kg),T cell counts diminution
same,tumor growth,"[7]; IFO 150 mg/kg single i.p., non-depleted mice",Significant reduction of the tumor growth
same,antitumor effect,"[7]; IFO 150 mg/kg, CD4+ T cells and CD8+ T cells depleted mice",decrease of the antitumor effect
same,antitumor efficacy,"[7]; IFO 150 mg/kg, mice depleted with both CD4+ and CD8+ T cells",completely abolished
same,tumor growth,"[1]; IFO 100, 150, 200 and 300 mg/kg",delay of tumor growth
same,improved disease-free survival,osteosarcoma; children previously treated with conventional chemotherapy,30 % of patients
same,"severe nephrotoxicity, share of patients",osteosarcoma,a quarter
same,TCR-driven IL-6 compared to CPA 100 mg/kg,[5]; IFO 150 mg/kg,more
same,TCR-driven IL-17 compared to CPA 100 mg/kg,[5]; IFO 150 mg/kg,more
same,TCR-driven IFNγ,[5]; [8],significant secretion
same,TCR-driven IL-6,[5]; [8],significant secretion
same,TCR-driven IL-17A,[5]; [8],significant secretion
same,TCR-driven IFNγ,[5]; IFO 200 and 300 mg/kg,failed to induce
same,TCR-driven IL-6,[5]; IFO 200 and 300 mg/kg,remained highly secreted
same,TCR-driven IL-17A,[5]; IFO 200 and 300 mg/kg,failed to induce
same,TCR-driven IFNγ,[2],significant increase
same,TCR-driven IL-6,[2],significant increase
same,TCR-driven IL-17A,[2],significant increase
same,B cell depletion in the spleen,B cells,Dose-dependent B cell depletion
CC(C)=CCC/C(C)=C/CC/C(C)=C/CC/C=C(\C)CC/C=C(\C)CCCOC1CCOP(=O)(NCCCl)N1CCCl (stereo not drawn) [SQ-IFO],cytotoxicity,several cancerous cells,display cytotoxicity
CC(C)=CCC/C(C)=C/CC/C(C)=C/CC/C=C(\C)CC/C=C(\C)CCC(=O)NCCSC1CCOP(=O)(NCCCl)N1CCCl (stereo not drawn) [SQ-thio-IFO],cytotoxicity,several cancerous cells,display cytotoxicity
